Experimental data taken from patent US20250136606A1, “MODULATORS OF TRPML, THEIR COMPOSITIONS AND METHODS OF USE” (Caraway Therapeutics, Inc., priority 2021, published 2025).

Tests used:
Format in all cases: cell-based
TRPML1 = TRPML1 (Homo sapiens, UniProt Q9GZU1); assay: Fluorescent TRPML1 assay (Fluo4-AM calcium fluorescence in doxycycline-induced HEK-293 Trex cells)
How it was run: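 HEK-293 Trex cells stably expressing surface-directed mutant human TRPML1, induced with 0.5 µg/mL doxycycline overnight, were loaded with 1 µM Fluo4-AM and added to compound (6 nM–20 µM final, half-log steps, triplicate) in Ringer's with 10 mM calcium. Fluorescence ex 480/em 540; EC50 by non-linear regression versus plate controls.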

TRPML2 = target: T1, TRPML2 (Homo sapiens, UniProt Q8IZK6); assay: Fluorescent TRPML2 assay (performed as for TRPML1, substituting the TRPML2 subtype)
T1 construct: expressed in transfected cells
T1 sequence (Q8IZK6 1-566): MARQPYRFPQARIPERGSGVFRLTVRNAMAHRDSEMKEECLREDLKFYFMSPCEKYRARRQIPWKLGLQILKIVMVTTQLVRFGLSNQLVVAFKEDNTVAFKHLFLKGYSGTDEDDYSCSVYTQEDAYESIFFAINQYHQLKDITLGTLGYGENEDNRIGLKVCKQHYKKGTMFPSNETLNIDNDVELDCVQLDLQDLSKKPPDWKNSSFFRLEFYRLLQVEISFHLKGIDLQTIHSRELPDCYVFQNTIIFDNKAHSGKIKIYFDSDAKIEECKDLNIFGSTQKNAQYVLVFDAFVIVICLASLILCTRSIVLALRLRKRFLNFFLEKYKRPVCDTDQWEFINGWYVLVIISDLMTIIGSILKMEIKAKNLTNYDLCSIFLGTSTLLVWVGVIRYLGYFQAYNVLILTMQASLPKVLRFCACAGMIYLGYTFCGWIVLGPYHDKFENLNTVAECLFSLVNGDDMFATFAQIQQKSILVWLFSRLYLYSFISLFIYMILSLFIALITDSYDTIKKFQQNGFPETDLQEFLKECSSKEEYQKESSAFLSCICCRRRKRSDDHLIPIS
How it was run: (§1)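 HEK-293 Trex, dox-induced (0.5 ug/mL), mutated for surface expression. Fluo4-AM 1 micromolar load ~60 min, dark; buffer modified Ringer's, 10 mM Ca. Cpds 20 micromolar–6 nanomolar final, half-log, n=3. Read ex 480/em 540; % activity vs controls; EC50 nonlinear fit.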

TRPML3 = target: T2, TRPML3 (Homo sapiens, UniProt Q8TDD5); assay: Fluorescent TRPML3 assay (performed as for TRPML1, substituting the TRPML3 subtype)
T2 construct: expressed in transfected cells
T2 sequence (Q8TDD5 1-553): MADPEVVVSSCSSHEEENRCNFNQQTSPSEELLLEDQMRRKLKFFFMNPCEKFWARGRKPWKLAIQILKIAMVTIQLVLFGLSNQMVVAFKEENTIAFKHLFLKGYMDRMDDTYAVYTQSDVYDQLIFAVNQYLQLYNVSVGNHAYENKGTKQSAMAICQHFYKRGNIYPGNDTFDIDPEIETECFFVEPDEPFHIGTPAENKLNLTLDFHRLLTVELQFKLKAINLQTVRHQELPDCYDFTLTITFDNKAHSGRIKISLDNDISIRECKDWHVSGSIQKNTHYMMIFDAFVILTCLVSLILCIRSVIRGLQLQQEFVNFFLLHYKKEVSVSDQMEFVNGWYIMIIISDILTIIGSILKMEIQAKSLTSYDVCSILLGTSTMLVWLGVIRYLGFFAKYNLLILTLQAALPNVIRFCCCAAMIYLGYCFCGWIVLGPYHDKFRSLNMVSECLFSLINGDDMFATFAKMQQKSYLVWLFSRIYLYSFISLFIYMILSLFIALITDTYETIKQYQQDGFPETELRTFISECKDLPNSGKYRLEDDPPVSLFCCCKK
How it was run: as §1

TRPML1, sequence (Q9GZU1 whole entry L15A/L16A/L577A/L578A, form open): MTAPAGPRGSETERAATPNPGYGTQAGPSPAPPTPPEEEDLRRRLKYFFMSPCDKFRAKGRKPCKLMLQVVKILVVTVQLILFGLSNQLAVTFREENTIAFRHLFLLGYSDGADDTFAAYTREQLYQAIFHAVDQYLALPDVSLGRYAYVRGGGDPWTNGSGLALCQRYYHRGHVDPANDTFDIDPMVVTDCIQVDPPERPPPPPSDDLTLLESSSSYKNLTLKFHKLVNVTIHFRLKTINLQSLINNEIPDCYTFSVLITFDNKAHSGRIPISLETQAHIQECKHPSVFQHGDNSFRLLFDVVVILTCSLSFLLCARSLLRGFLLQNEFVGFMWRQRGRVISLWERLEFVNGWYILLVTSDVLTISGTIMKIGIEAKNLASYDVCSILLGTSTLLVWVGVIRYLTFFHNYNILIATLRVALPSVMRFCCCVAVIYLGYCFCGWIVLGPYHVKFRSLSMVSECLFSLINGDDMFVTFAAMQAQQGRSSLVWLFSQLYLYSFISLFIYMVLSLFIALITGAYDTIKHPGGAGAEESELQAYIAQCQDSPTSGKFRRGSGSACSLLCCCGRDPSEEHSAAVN

EC50 (TRPML1) [nM]	EC50 (TRPML2) [nM]	EC50 (TRPML3) [nM]	Structure (SMILES)
100 to 500	100 to 500	100 to 500	Cc1cn(-c2cc(F)ccn2)c2ncnc(N3CCN(C(=O)OC(C)(C)C)[C@H](C)C3)c12 [Compound 678, tert-butyl (R)-4-(7-(4-fluoropyridin-2-yl)-5-methyl-7H-pyrrolo[2,3-d]pyrimidin-4-yl)-2-methylpiperazine-1-carboxylate]
< 100	< 100	< 100	Cc1cn(-c2cc(C(F)(F)F)ccn2)c2ncnc(N3CCN(C(=O)OC(C)(C)C)[C@H](C)C3)c12 [Compound 679, tert-butyl (R)-2-methyl-4-(5-methyl-7-(4-(trifluoromethyl)pyridin-2-yl)-7H-pyrrolo[2,3-d]pyrimidin-4-yl)piperazine-1-carboxylatee]
< 100	< 100	< 100	Cc1cn(-c2cc(C#N)ccn2)c2ncnc(N3CCN(C(=O)OC(C)(C)C)[C@H](C)C3)c12 [Compound 680, tert-butyl (R)-4-(7-(4-cyanopyridin-2-yl)-5-methyl-7H-pyrrolo[2,3-d]pyrimidin-4-yl)-2-methylpiperazine-1-carboxylate]
< 100	< 100	< 100	Cc1cn(-c2cc(F)ccn2)c2ncnc(N3CCN(C(=O)OC(C)(C)C)C[C@@H]3C)c12 [Compound 681, tert-butyl (S)-4-(7-(4-fluoropyridin-2-yl)-5-methyl-7H-pyrrolo[2,3-d]pyrimidin-4-yl)-3-methylpiperazine-1-carboxylate]
< 100	< 100	< 100	Cc1cn(-c2cc(C(F)(F)F)ccn2)c2ncnc(N3CCN(C(=O)OC(C)(C)C)C[C@@H]3C)c12 [Compound 682, tert-butyl (S)-3-methyl-4-(5-methyl-7-(4-(trifluoromethyl)pyridin-2-yl)-7H-pyrrolo[2,3-d]pyrimidin-4-yl)piperazine-1-carboxylate]
< 100	< 100	< 100	Cc1cn(-c2cccc(C(F)(F)F)c2)c2ncnc(N3CCN(C(=O)OC(C)(C)C)C[C@@H]3C)c12 [Compound 684, tert-butyl (S)-3-methyl-4-(5-methyl-7-(3-(trifluoromethyl)phenyl)-7H-pyrrolo[2,3-d]pyrimidin-4-yl)piperazine-1-carboxylate]
< 100	500 to 2000	< 100	Cc1cn(-c2ccccn2)c2ncnc(N3CCN(C(=O)OC(C)(C)C)C[C@@H]3C)c12 [Compound 690, tert-butyl (S)-3-methyl-4-(5-methyl-7-(pyridin-2-yl)-7H-pyrrolo[2,3-d]pyrimidin-4-yl)piperazine-1-carboxylate]
< 100	< 100	< 100	CCc1cn(-c2cc(C(F)(F)F)ccn2)c2ncnc(N3C[C@@H](C)N(C(=O)OC(C)(C)C)C[C@@H]3C)c12 [Compound 696, tert-butyl (2R,5S)-4-(5-ethyl-7-(4-(trifluoromethyl)pyridin-2-yl)-7H-pyrrolo[2,3-d]pyrimidin-4-yl)-2,5-dimethylpiperazine-1-carboxylate]

The remaining lines, values behind:

Structure (SMILES)	EC50 (TRPML1) [nM]	EC50 (TRPML2) [nM]	EC50 (TRPML3) [nM]
Cc1cn(-c2ccc(F)cc2)c2ncnc(N3C[C@@H](C)N(C(=O)OC(C)(C)C)C[C@@H]3C)c12 [Compound 676, tert-butyl (2R,5S)-4-(7-(4-fluorophenyl)-5-methyl-7H-pyrrolo[2,3-d]pyrimidin-4-yl)-2,5-dimethylpiperazine-1-carboxylate]	< 100	100 to 500	< 100
Cc1cn(-c2cc(F)cc(Cl)c2)c2ncnc(N3C[C@@H](C)N(C(=O)OC(C)(C)C)C[C@@H]3C)c12 [Compound 677, tert-butyl (2R,5S)-4-(7-(3-chloro-5-fluorophenyl)-5-methyl-7H-pyrrolo[2,3-d]pyrimidin-4-yl)-2,5-dimethylpiperazine-1-carboxylate]	< 100	100 to 500	< 100
Cc1cn(-c2cccc(F)c2)c2ncnc(N3CCN(C(=O)OC(C)(C)C)C[C@@H]3C)c12 [Compound 683, tert-butyl (S)-4-(7-(3-fluorophenyl)-5-methyl-7H-pyrrolo[2,3-d]pyrimidin-4-yl)-3-methylpiperazine-1-carboxylate]	< 100	100 to 500	< 100
Cc1cn(-c2ccccc2)c2ncnc(N3CCN(C(=O)OC(C)(C)C)C[C@@H]3C)c12 [Compound 685, tert-butyl (S)-3-methyl-4-(5-methyl-7-phenyl-7H-pyrrolo[2,3-d]pyrimidin-4-yl)piperazine-1-carboxylate]	< 100	500 to 2000	< 100
Cc1cn(-c2cccc(C#N)c2)c2ncnc(N3CCN(C(=O)OC(C)(C)C)C[C@@H]3C)c12 [Compound 686, tert-butyl (S)-4-(7-(3-cyanophenyl)-5-methyl-7H-pyrrolo[2,3-d]pyrimidin-4-yl)-3-methylpiperazine-1-carboxylate]	< 100	< 100	< 100
Cc1cn(-c2cc(F)cc(F)c2)c2ncnc(N3CCN(C(=O)OC(C)(C)C)C[C@@H]3C)c12 [Compound 687, tert-butyl (S)-4-(7-(3,5-difluorophenyl)-5-methyl-7H-pyrrolo[2,3-d]pyrimidin-4-yl)-3-methylpiperazine-1-carboxylate]	< 100	100 to 500	< 100
Cc1cn(-c2cccc(Cl)c2)c2ncnc(N3CCN(C(=O)OC(C)(C)C)C[C@@H]3C)c12 [Compound 688, tert-butyl (S)-4-(7-(3-chlorophenyl)-5-methyl-7H-pyrrolo[2,3-d]pyrimidin-4-yl)-3-methylpiperazine-1-carboxylate]	< 100	< 100	< 100
Cc1cn(-c2cncc(F)c2)c2ncnc(N3CCN(C(=O)OC(C)(C)C)C[C@@H]3C)c12 [Compound 689, tert-butyl (S)-4-(7-(5-fluoropyridin-3-yl)-5-methyl-7H-pyrrolo[2,3-d]pyrimidin-4-yl)-3-methylpiperazine-1-carboxylate]	< 100	100 to 500	100 to 500
Cc1cn(-c2ccc(F)cc2)c2ncnc(N3CCN(C(=O)OC(C)(C)C)C[C@@H]3C)c12 [Compound 692, tert-butyl (S)-4-(7-(4-fluorophenyl)-5-methyl-7H-pyrrolo[2,3-d]pyrimidin-4-yl)-3-methylpiperazine-1-carboxylate]	< 100	< 100	< 100
Cc1cn(-c2cc(F)cc(Cl)c2)c2ncnc(N3CCN(C(=O)OC(C)(C)C)C[C@@H]3C)c12 [Compound 693, tert-butyl (S)-4-(7-(3-chloro-5-fluorophenyl)-5-methyl-7H-pyrrolo[2,3-d]pyrimidin-4-yl)-3-methylpiperazine-1-carboxylate]	< 100	100 to 500	< 100
C[C@@H]1CN(c2ncnc3c2c(C(F)F)cn3-c2cccc(F)c2)[C@@H](C)CN1C(=O)OC(C)(C)C [Compound 695, tert-butyl (2R,5S)-4-(5-(difluoromethyl)-7-(3-fluorophenyl)-7H-pyrrolo[2,3-d]pyrimidin-4-yl)-2,5-dimethylpiperazine-1-carboxylate]	< 100	100 to 500	< 100
